Assay [1] has as its system cortical axons collapses triggered by Sema3A. The assay is described as follows: Cortical axons collapses triggered by Sema3A in neocortex explants. The assay is classed as cell-based, mouse. To be noted: Sema3A 100 ng/ml, peptide 10^−8 to 10^−11 M, 2 h, read-out: IC50, inhibition of cortical axons collapses induced by Sema3A. The procedure: The inhibitory axon growth property of Sema 3A is supposed to be linked to its induction capacity of growth cone collapses. To investigate the effect of the pTM-NRP1 peptide on the Sema 3A functional properties, the growth of cortical neurons was analyzed in the presence or not of Sema 3A and of pTM-NRP1 or pTM-NRP1^mut (NRP1 TM with a triple G→V mutation) peptides.
Laminine/Poly-L-Lysine substrates have been made by adding 980 μL of Gey's balanced salt solution (GBSS, SIGMA) to 10 μL laminine (1 mg/ml, SIGMA) and to 10 μL poly-L-Lysine (10 mg/ml, SIGMA). Sterile coverslips have been placed in a big dish and added with substrate (100 μL). Then, ‘sandwiches’ have been prepared by covering each coverslip with a second one. After an incubation for at least 30 min at 37° C. under 5% CO2 in air, ‘sandwiches’ have been opened and each coverslip has been rinsed with deionized water. Explants have been cultured on dried coverslips.
Neocortex fragments prepared from E15 mouse embryos (E1 determined as the first day of embryonic development by detection of vaginal plug) have been transferred on a tissue chopper disk. Tissue have been cut into 200×200 μm by rotating the disk by 90° after the first cut. Cortex cubes have been collected with a spatula and put into culture medium in a Petri dish. Two coverslips with substrate have been placed in a small Petri dish (50 mm diameter, FALCON). After adding 750 μl of culture medium, the coverslips should stay in the incubator for at least 10 minutes. Using a dissecting microscope, forty to fifty cortical explants have been collected in 20 μl culture medium and carefully placed onto the coverslips. After 15 min at room temperature, most explants have adhered to their substrate. 2250 μl of culture medium have been slowly added to each dish. Then, explants cultures have been kept at 37° C. under 5% CO2 in air.
A radial outgrowth could be seen after 18-24 h in culture, and individual fibres and growth cones could have therefore been analyzed. Products tested on growth cones have been directly added in culture medium for 2 h: • purified Sema3A (100 ng/ml) prepared from conditioned medium of HEK293 cells stably expressing Sema3A. The purification was performed by using the anti-Flag system, SIGMA) • pTM-NRP1 (10^−8, 10^−9, 10^−10 and 10^−11 M), • 10^−8M mpTM-NRP1, • 10^−8M pTM-ErbB2w (SEQ ID NO. 18).
After incubation, 4% formaldehyde has been directly added in culture medium (v/v) for 15min. Then the solution has been removed and replaced by 4% formaldehyde for 15 min.

A further assay addresses T1, NRP1 (Homo sapiens, UniProt O14786).
T1 construct: mutations were introduced into the TM domain of a full length NRP1; expressed in transfected cells; host or cells: COS-1 cells, pBK-CMV plasmid (cDNA provided by Pr. Puschel)
The experiment in a line: AP-Sema3A binding to NRP1-expressing COS cells (optical density per cell). To be noted: peptide 10^−9 M, 1 hour pre-incubation. The procedure: NRP1 expressing COS cells were incubated with AP-Sema3A, a fusion protein of Sema3A and the secreted alkaline phosphatase (BAGNARD et al., 1998).
Wild-type COS cells or NRP1-expressing COS cells (COS-NRP1) were cultured on 12-wells plates on poly-L-lysine-coated glass coverslips (0.005 mg/ml). After one-hour incubation with pTM-NRP1 or pTM-NRP1^mut (10^−9M) in serum-free medium at 37° C., the culture medium was replaced by conditioned medium containing alkaline phosphatase-coupled Sema3A (AP-Sema3A; BAGNARD et al., 1998) obtained from AP-Sema3A stably expressing HEK cells for 90 mn. Conditioned medium without semaphorin served as a control (obtained from non-transfected HEK). Cells were washed three times with PBS and fixed in 4% formaldehyde before transfer in a new dish. After three washes in PBS, the plate was warmed for 50 mn at 65° C. Cells were subsequently incubated with 1 ml of alkaline phosphatase substrate (NBT/BCIP, SIGMA) in the dark. After 45 mn, substrate was removed and glass coverslips were rinsed. Pictures were acquired with a conventional microscope and analyzed with AxioVision LE Zeiss software. For each condition tested, about 60 cells were analyzed to determine binding levels as a function of optical density. Statistical analysis was performed by using a Student's t test.

One may read the IC50 as the concentration at which inhibition is half-maximal.

Like-named read-outs stand apart in the source and are kept apart here. A value given as a limit tells only on which side of the number the result lay.

T1 sequence (O14786 22-923): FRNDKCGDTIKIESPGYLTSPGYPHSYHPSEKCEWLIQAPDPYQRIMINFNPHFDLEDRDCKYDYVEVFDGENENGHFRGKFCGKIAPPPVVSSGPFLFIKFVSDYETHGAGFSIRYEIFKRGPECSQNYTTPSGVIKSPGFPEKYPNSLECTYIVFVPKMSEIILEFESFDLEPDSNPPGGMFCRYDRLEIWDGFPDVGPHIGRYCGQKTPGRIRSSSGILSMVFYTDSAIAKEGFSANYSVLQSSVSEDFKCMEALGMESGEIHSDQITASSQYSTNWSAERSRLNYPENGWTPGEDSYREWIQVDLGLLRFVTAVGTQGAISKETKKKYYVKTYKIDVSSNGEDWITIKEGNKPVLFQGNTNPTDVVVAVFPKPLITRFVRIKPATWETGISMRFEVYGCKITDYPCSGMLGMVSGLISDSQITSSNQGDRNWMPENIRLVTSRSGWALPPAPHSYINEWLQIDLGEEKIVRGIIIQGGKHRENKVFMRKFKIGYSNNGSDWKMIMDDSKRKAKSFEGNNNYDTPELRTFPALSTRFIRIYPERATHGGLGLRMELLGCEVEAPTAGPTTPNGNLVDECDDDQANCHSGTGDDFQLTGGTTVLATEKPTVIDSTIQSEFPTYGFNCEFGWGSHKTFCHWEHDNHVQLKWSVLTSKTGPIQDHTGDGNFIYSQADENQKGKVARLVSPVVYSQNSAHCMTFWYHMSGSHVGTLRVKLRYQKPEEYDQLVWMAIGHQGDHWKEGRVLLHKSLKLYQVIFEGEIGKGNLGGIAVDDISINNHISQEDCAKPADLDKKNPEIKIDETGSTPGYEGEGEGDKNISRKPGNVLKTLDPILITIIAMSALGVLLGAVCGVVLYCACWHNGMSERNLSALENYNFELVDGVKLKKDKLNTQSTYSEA

For ILITIIAMSALGVLLGAVCGVVL [pTM-NRP1], the 50% inhibitory concentration (IC50) in assay [1] (listed as peptide corresponding to the transmembrane domain of NRP1) is below 0.01 nM; in assay [1], around 0.01 nM. Besides, the “binding of AP-Sema3A to NRP1-expressing COS cells” value at NRP1 was “significantly reduced”.

Values taken from patent publication US8956622B2, “Peptidic antagonists of class III semaphorins/neuropilins complexes” (INSERM—Institut National de la Sante et de la Recherche …, priority 2005, dated 2015).
